# Test results taken from ChEMBL document CHEMBL3991601, “The target landscape of clinical kinase drugs” (Science, 2017).
# The source made the active and inactive calls.
# Experiments:
# [1] = target: T1, Very long-chain specific acyl-CoA dehydrogenase, mitochondrial (Homo sapiens, UniProt P49748)
# T1 sequence (P49748 whole entry): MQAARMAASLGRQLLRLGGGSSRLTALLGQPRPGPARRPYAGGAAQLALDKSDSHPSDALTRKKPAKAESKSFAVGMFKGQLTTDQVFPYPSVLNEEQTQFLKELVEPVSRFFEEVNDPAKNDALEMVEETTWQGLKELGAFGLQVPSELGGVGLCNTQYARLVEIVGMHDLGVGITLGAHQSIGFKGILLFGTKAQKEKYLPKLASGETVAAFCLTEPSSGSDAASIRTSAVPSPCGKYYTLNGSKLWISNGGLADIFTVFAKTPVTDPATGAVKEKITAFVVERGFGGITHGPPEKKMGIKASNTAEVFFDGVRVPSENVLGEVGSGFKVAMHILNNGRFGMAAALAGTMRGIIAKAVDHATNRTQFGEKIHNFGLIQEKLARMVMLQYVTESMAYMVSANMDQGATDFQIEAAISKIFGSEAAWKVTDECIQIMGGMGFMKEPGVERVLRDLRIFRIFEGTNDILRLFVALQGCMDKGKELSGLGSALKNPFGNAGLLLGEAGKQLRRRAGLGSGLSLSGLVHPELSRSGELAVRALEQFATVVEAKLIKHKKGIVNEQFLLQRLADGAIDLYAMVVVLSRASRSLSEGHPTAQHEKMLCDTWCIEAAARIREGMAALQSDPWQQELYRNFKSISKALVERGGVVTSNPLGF
# GTP-binding protein 4 = GTP-binding protein 4 (Homo sapiens, UniProt Q9BZE4)
# [2] = target: Phosphatidylethanolamine-binding protein 1 (Homo sapiens, UniProt P30086)
# Sequence of Phosphatidylethanolamine-binding protein 1 (P30086 whole entry): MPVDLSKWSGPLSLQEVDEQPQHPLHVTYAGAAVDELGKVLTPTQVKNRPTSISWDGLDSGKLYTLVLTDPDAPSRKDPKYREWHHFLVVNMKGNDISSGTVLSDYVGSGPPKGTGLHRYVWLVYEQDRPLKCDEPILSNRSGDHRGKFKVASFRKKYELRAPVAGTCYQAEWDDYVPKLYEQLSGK
# [3] = target: T2, MAP/microtubule affinity-regulating kinase 4 (Homo sapiens, UniProt Q96L34)
# T2 sequence (Q96L34 whole entry): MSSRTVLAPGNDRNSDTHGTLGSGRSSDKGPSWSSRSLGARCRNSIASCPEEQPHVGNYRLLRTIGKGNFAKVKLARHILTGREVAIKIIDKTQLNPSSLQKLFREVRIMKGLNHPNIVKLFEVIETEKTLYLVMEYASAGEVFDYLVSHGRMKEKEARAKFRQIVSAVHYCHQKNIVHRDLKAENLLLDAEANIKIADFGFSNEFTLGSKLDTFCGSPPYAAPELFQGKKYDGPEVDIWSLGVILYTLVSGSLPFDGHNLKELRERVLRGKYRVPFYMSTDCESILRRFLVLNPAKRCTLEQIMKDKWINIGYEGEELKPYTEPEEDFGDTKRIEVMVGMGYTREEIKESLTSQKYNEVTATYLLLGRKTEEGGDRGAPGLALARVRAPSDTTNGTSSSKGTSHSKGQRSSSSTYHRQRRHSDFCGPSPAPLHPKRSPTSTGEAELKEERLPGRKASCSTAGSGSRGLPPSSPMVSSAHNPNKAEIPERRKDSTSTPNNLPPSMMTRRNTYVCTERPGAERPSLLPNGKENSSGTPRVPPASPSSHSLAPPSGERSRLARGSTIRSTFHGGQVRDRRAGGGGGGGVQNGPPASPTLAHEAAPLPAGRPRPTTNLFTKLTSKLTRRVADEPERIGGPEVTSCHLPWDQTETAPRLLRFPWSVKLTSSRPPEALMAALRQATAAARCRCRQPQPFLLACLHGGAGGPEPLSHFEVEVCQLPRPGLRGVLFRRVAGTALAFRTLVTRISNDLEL
# [4] = target: T3, Mitogen-activated protein kinase kinase kinase 6 (Homo sapiens, UniProt O95382)
# T3 sequence (O95382 whole entry): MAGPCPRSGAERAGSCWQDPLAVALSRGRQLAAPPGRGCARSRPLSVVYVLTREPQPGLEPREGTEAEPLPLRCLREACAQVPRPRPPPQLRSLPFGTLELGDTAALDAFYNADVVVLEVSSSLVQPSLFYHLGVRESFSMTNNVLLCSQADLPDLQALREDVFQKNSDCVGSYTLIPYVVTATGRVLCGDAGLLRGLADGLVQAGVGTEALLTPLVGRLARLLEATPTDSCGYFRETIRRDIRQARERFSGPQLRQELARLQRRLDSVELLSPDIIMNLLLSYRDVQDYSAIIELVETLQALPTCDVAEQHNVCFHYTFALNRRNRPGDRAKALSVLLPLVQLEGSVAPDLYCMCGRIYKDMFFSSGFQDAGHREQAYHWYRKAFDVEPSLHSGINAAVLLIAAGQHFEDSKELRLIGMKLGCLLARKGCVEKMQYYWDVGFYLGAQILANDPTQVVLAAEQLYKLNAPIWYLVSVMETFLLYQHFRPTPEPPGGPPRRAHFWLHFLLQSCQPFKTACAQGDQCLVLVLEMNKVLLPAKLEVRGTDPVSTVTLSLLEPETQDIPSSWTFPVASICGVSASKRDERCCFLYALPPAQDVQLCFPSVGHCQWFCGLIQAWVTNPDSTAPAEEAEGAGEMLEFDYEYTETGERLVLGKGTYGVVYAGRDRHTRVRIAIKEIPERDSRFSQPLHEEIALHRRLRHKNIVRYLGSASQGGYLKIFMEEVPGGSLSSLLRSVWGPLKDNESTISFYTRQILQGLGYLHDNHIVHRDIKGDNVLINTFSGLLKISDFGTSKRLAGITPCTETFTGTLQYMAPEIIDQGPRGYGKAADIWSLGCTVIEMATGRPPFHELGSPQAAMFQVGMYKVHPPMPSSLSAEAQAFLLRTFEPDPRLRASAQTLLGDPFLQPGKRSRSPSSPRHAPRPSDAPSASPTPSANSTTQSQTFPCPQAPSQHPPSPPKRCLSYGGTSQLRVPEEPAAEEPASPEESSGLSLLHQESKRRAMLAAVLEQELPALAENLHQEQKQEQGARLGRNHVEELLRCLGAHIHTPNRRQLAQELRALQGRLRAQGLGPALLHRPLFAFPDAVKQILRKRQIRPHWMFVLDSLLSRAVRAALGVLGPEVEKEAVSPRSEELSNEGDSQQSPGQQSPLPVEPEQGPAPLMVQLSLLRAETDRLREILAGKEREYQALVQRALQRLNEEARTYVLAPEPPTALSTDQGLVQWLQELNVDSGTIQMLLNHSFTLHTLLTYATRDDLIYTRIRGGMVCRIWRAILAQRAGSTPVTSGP
# Myosin-10 = Myosin-10 (Homo sapiens, UniProt P35580)
# Sequence of Myosin-10 (P35580 whole entry): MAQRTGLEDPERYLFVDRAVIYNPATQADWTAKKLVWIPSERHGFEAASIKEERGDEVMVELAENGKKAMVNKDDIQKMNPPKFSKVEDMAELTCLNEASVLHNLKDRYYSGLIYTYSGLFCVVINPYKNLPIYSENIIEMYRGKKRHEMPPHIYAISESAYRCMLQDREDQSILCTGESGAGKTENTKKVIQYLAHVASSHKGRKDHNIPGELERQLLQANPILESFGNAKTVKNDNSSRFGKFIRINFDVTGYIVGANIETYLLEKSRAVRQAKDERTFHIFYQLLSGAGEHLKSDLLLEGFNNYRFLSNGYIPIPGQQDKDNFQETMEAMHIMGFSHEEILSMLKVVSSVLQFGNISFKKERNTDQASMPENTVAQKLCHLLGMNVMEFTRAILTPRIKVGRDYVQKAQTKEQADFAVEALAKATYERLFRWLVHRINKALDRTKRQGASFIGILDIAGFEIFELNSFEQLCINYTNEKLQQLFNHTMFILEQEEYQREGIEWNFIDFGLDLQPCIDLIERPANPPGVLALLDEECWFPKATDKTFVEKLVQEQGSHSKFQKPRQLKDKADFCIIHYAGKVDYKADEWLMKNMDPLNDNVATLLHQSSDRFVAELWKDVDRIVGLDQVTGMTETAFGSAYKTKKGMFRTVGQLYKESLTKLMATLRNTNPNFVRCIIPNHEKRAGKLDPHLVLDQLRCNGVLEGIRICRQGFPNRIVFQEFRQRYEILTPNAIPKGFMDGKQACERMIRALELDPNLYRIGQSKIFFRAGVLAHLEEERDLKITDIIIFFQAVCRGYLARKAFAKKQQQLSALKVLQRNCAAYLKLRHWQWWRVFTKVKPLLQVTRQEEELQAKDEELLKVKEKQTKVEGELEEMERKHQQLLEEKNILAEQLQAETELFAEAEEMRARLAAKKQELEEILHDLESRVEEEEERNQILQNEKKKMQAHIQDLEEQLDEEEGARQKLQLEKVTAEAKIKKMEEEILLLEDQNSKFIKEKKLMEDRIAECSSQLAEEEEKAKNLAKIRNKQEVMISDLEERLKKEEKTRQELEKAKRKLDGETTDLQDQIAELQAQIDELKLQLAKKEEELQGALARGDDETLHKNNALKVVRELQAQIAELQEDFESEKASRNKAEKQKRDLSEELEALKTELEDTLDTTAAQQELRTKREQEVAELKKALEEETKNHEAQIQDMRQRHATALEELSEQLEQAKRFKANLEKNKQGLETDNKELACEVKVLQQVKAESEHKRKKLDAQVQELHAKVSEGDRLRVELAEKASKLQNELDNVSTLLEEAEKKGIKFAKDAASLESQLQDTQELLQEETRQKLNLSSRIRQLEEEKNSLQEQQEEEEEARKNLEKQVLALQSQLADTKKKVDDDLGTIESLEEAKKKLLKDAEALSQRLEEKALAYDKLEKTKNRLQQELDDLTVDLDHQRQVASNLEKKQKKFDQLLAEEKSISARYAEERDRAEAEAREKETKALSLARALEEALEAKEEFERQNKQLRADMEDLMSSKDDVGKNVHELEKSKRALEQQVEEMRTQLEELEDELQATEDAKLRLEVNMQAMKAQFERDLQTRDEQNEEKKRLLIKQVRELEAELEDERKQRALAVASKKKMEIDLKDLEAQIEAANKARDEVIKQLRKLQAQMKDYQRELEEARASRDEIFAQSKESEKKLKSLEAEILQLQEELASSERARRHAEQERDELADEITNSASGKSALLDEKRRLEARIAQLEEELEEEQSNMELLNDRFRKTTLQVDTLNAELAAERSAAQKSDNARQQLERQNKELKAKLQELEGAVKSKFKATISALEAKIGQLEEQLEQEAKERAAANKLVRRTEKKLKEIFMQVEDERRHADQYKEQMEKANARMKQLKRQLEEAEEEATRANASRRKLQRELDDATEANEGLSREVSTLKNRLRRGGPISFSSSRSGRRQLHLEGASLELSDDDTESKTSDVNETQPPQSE
# Note: in the data inactive means no Kd found up to 30 µM.
Kd [1],Kd (GTP-binding protein 4),Kd [2],Kd [3],Kd [4],Kd (Myosin-10),SMILES
> 30 µM (inactive),> 30 µM (inactive),> 30 µM (inactive),> 30 µM (inactive),> 30 µM (inactive),> 30 µM (inactive),C[C@@H](NC(=O)c1ncnc(N)c1Cl)c1ncc(C(=O)Nc2cc(C(F)(F)F)c(Cl)cn2)s1 [TOVORAFENIB]
> 30 µM (inactive),> 30 µM (inactive),> 30 µM (inactive),> 30 µM (inactive),> 30 µM (inactive),> 30 µM (inactive),C[C@@H](N)c1ccc(C(=O)Nc2ccnc3[nH]ccc23)cc1 [Y-39983]

SMILES,Kd [1],Kd (GTP-binding protein 4),Kd [2],Kd [3],Kd [4],Kd (Myosin-10)
Cc1cc(Nc2ncnc3ccc(NC4=NC(C)(C)CO4)cc23)ccc1Oc1ccn2ncnc2c1 [TUCATINIB],> 30 µM (inactive),> 30 µM (inactive),> 30 µM (inactive),> 30 µM (inactive),> 30 µM (inactive),> 30 µM (inactive)
